Assay: Electric potential experiment (degree of carbonation, carbon dioxide electrode) as surrogate of bitterness perception
Assay type: physicochemical
Details: Sol. Nos. 26-28, acetaminophen as the API, 100 mL deionized water
Experimental: Formulations comprising the effervescent combination (sodium bicarbonate and citric acid) and molecules/compositions that impart a bitter taste (such as APIs or compositions comprising APIs) can be prepared according to Tables 1-5 below. Exemplary formulations according to the disclosure were made according to the following general procedure. 100 mL of deionized water from MILLI-Q® Q-POD® water purifier (having about 1.9 ppb total organic content) was weighed out in an appropriately sized glass beaker. The ingredients mentioned in Tables 1-5 below were weighed out and added to the glass beaker containing deionized water, and then the mixture was stirred for 15 minutes until the blend is homogenous. Each ingredient was sieved through a mesh 18 strainer ([…] strainer size means particles won't be greater than 0.0394 inches (1000 microns or 1 mm) in diameter) to remove clumps before weighing. The METTLER TOLEDO® XP6035S was used to measure ingredient weight, but any suitable weighing balance may be used.
Various combinations of bitter tasting molecules/compositions (e.g., APIs or compositions comprising APIs) along with the effervescent combination were prepared as solutions (see Sol. Nos. 1-36 in FIG. 1) per the general procedure described in Example 1. For the electric potential experiment, after the solutions were stirred, a carbon dioxide electrode (which measures the degree of carbonation) was dipped in the glass beaker to assess degree of carbonation (unit is electric potential in mV). The THERMO SCIENTIFIC™ ORION™ VSTAR PRO™ 9502BNWP carbon dioxide electrode was used to measure electrical potential (mV). The METTLER TOLEDO SEVENCOMPACT™ PH meter PD-470 was used to measure the pH. […] The carbon dioxide electrode was rinsed with deionized water and cleaned with a lint free tissue in between samples.

With CC(=O)Nc1ccc(O)cc1 [acetaminophen] the average electric potential (including 0.300 g of the effervescent combination (low end)) was 22.24 mV, the average electric potential (including 0.400 g of the effervescent combination) was 30.4 mV and the average electric potential (including 0.500 g (high end) of the effervescent combination) was 35.67 mV.
